These are literature values, as cited in patent publication US20120201867A1, “DRUG DELIVERY FROM EMBOLIC AGENTS” (priority 2004, published 2012).

The subject of data set [1] is topoisomerase I purified from human and rodent tumour cell lines. Particulars: SN-38 versus irinotecan.
Data set [2] has as its system CC531-lacZ cells. Particulars: Saenger et al.

Counter-ions that a name gives are not always drawn.

Turning to `CCc1c2c(nc3ccc(O)cc13)-c1cc3c(c(=O)n1C2)COC(=O)[C@]3(O)CC` [SN-38], in data set [1], the “potency relative to irinotecan as an inhibitor of topoisomerase I” value is listed as “approximately 1000 times”.

As for `CCc1c2c(nc3ccc(OC(=O)N4CCC(N5CCCCC5)CC4)cc13)-c1cc3c(c(=O)n1C2)COC(=O)[C@]3(O)CC` [irinotecan, Irinotecan hydrochloride trihydrate], in data set [2], the “complete remission, share of rats” value is recorded as 44% and the “reduction of the mean tumour cell load” value was 66%.
